These results are taken from patent US10894777B2, “TG2 inhibitor piperazine compounds and uses thereof” (UNIVERSITY OF OTTAWA, priority 2016, dated 2021).

What all share (type): cell-based, human
For one assay, the system named is TG2 mRNA. Briefly: TG2 mRNA expression by qRT-PCR in GBM cell lines. Conditions: 10 μM, 24 or 48 h. The protocol:
Q-RTPCR. After RNA isolation, cDNA was synthesized using the verso cDNA kit (ThermoFisher) with oligo-dT primers following the manufacturer's instructions. Quantitative real time PCR was carried out using SYBR green mix (Agilent Technologies) along with primers against total human TG2 or GAPDH (for normalization) as previously described (Cao, L. et al., Oncogene 31(20):2521-34, 2012).

Another assay concerns EGFR. Briefly: Immunoblot of EGFR and phospho-EGFR in GBM cells. On the procedure:
In (A) it is shown that shorter treatments with NC9 had no effect on EGF-stimulated EGFR phosphorylation in U87 cells. U87 cells were treated with 10 μM NC9 or DMSO control for 24 h followed by 10 min of 100 ng/mL EGF treatment. At the end of the treatments, cells were lysed and 20 μg of lysates from U87 cells were blotted for phospho-EGFR, EGFR and tubulin. […] Cell medium was changed every 24 h and fresh inhibitors or DMSO was added to the medium. At the end of the treatment, cells were lysed and 20 μg of lysates from cells U87 and T98G were blotted for phospho-EGFR, EGFR and actin.
Immunoblotting. Cells were rinsed in ice-cold phosphate-buffered saline (PBS) and collected in lysis buffer, containing 0.5% NP-40, 150 mM NaCl, 10 mM Tris-Cl (pH 7.4), 1 mM EGTA, 1 mM EDTA, 1 mM phenylmethylsulphonyl fluoride, 1 μM okadaic acid, and 10 μg/mL each of aprotinin, leupeptin, and pepstatin. Samples were sonicated on ice and centrifuged at 16,000 g for 10 min. Protein concentrations of supernatants were then determined by the bicinchoninic acid assay with bovine serum albumin (BSA) as a standard and samples were diluted to a final concentration of 1 mg/mL with 2× reducing stop buffer (0.25 M Tris-HCl, pH 6.8, 5 mM EDTA, 5 mM EGTA, 25 mM dithiothreitol, 2% SDS, 10% glycerol, and bromophenol blue as the tracking dye). […]
For orientation: A western blot detects proteins with antibodies after separation by electrophoresis.

The test system of assay [1] is shRNA-transduced U87, U251 and T98G cells. Briefly: Agarose colony formation assay, TG2 shRNA-transduced cells. Conditions: 10 μM, 2 weeks. On the procedure: Lentiviral vectors. Lentiviral knockdown vectors were prepared and used as previously described (Gundemir, S. et al., PLoS ONE 4(7):e6123, 2009; Barde, I. et al., Curr. Protoc. Neurosci. Chapter 4, Unit 4.21, 1-23, 2010).
(§1) Agarose colony formation assay. Agarose colony formation assay was conducted as described (Horman, S. R. et al., J. Biomol. Screen 18(10):1298-308, 2013; Zhang, K. et al., Tumour Biol. 35(3):2537-48, 2014) using 6-well plates and 5,000 cells in each well. 10 μM NC9 or DMSO was added to every layer at the start of the experiments. 2 mL liquid MEM containing 10 μM NC9 or DMSO was used to cover the agarose and it was changed 3 times a week. Colony growth was monitored every day and at the end of 10-15 days, the colonies were fixed with 4% paraformaldehyde, stained with 0.005% crystal violet, washed with PBS twice and 40 random pictures were taken from each treatment group. A person blinded for the treatments measured the area of the colonies using ImageJ program and the volumes were calculated from the area data under the assumption that the colonies are perfect spheres. The volumes were used to compare the effect of NC9 on colony growth.

A further assay relates to 1321N cells. In words: Agarose colony formation assay, TG2-null 1321N cells. Conditions: 10 μM, 2 weeks. The protocol: as §1

The structures appear in SMILES notation.

In the case of `C=CC(=O)NCCCC[C@H](NC(=O)OCc1ccccc1)C(=O)NCCOCCOCCNS(=O)(=O)c1cccc2c(N(C)C)cccc12` [NC9], in the assay with TG2 mRNA, the “TG2 mRNA levels” value is “no significant effects”. Besides, the “phospho-EGFR and EGFR levels, longer treatment” value in the assay with EGFR (U87 and T98G cells, 10 μM, 48-72 h) is “decrease phospho-EGFR and EGFR levels in U87 cells, but not T98G cells”. Further, the “EGFR or phospho-EGFR levels, shorter treatment” value in the assay with EGFR (U87 cells, 10 μM 24 h, then 100 ng/mL EGF 10 min) is recorded as “did not result in a decrease”. Also, in assay [1], the “growth-retarding effect when TG2 expression is silenced” value is listed as “completely lost”. Also, in the assay with 1321N cells, the “colony growth, 1321N” value is listed as “no effect”.
